Reference: patent US20050186230A1, “Elemene compositions containing liquid oil” (SD Pharmaceuticals, Inc., priority 2004, published 2005)
Read-outs that look alike come from different tables or passages of the source.

Key:
[1] = tested on: murine Ehrlich ascites carcinoma; conditions: cited from earlier work
[2] = tested on: rat ascitic reticulum cell sarcoma; conditions: material contained beta-elemene 65%; cited from earlier work
K562 leukemia cells = conditions: cited from earlier work
[3] = Solubility of elemenes in water; format: physicochemical; conditions: found by the inventor
cerebral carcinoma = conditions: combination of the elemene and local chemotherapy; cited from earlier work
[4] = tested on: promyelocytic leukemia HL 60 cells; conditions: cited from earlier work
[5] = tested on: erythroleukemia K562 cells; conditions: cited from earlier work
[6] = tested on: peripheral blood leukocytes (PBL); conditions: cited from earlier work
[7] = tested on: human leukemia K562 cells; conditions: cited from earlier work
[8] = background statement; cited from earlier work
[9] = tested on: brain tumors (neuroglioma), liver and esophageal cancers; conditions: 2 year clinical trial in China; cited from earlier work

Compound | anti-tumor activity ([1]; murine Ehrlich ascites carcinoma, material contained beta-elemene 65%) | side effects during treatment ([1]; murine and rat tumor models) | anti-tumor activity [2] | apoptosis of K562 leukemia cells (K562 leukemia cells) | solubility in water [3] | patients reaching complete remission level (cerebral carcinoma) | in vitro IC50 [4] | in vitro IC50 [5] | in vitro IC50 [6] | apoptosis of K562 cells [7] | bcl-2 protein expression in K562 cells [7] | solubility in water [8] | clinical effect [9]
C=CC1(C)CCC(C(=C)C)CC1C(=C)C (stereo not drawn) [beta-elemene, 1-methyl-1-vinyl-2,4-diisoprotenyl-cyclohexane] | marked anti-tumor activity | Diarrhea and weight loss | marked anti-tumor activity | induces apoptosis |  |  |  |  |  |  |  |  | 
elemene |  |  |  |  | some solubility in water | 27% | 27.5 µg/mL | 81 µg/mL | 254.3 µg/mL | induces apoptosis | down-regulation of bcl-2 protein | insoluble in water | beneficial effects on brain tumors (neuroglioma), liver and esophageal cancers
